Assay results: patent US8987192B2, “Potent and selective mediators of cholesterol efflux” (The Regents of the University of California, priority 2006, dated 2015)
“Also recorded” adds a separate entry of the source.

Columns and labels:
[1] = tested on: Apolipoprotein E deficient (ApoE −/−) mice; assay: In vivo cholesterol efflux and Reverse Cholesterol Transport from injected macrophage foam-cells; parameters: species or system mouse; details: 20 mg/kg IP
Procedure: Apolipoprotein E deficient (ApoE −/−) mice at 6 months of age were used to evaluate the ability of the polypeptide of SEQ ID NO:4 to stimulate cholesterol efflux and Reverse Cholesterol Transport (RCT) in vivo. [^3H]cholesterol-labeled macrophage foam-cells (i.e., loaded with acetylated LDL) were injected into the intraperitoneal (IP) cavity of Apo E −/− mice in the presence and absence of the polypeptide of SEQ ID NO:4 (20 mg/kg). The polypeptide stimulated cholesterol efflux in vivo, as judged by a pronounced (2-fold) increase in the levels of macrophage derived [^3H]cholesterol appearing in plasma at 8 and 24 hour post-injection, compared to saline vehicle alone (see, FIG. 20). This was accompanied by a greater than 2-fold increase in fecal sterol secretion at 8 and 24 h. In general, the effects of the peptide were relatively long-lived persisting up to 48 h.

[2] = tested on: ABCA1; assay: Cholesterol efflux in the absence and presence of ABCA1 (mouse macrophages and HeLa cells transfected with ABCA1 cDNA); type: cell-based; details: 8 hours, saturating peptide >30-fold Km
Text: The large excess of polypeptide was provided to determine the extent (if any) of non-specific efflux, in the absence of ABCA1 induction.

[3] = tested on: Apolipoprotein E knock-out mice; assay: Atherosclerosis in Apolipoprotein E knock-out mice on Western diet, pooled series (Example 19); type: in vivo, mouse
Procedure: The polypeptide of SEQ ID NO:4 and its Y26 analog have been evaluated with respect to ability to inhibit atherosclerosis in Apolipoprotein E knock-out mice. The mice were given Western diet for 18 weeks and then randomized to receive saline, free polypeptide or polypeptide-phospholipid complex. […] The degree of atherosclerosis was then determined in whole aorta and aortic root/sinus. Three experimental series were performed. […] The results are equal to or better than previously have been obtained with IV infusions of 40 mg/kg Apolipoprotein A-I Milano/phospholipids complex into Apo E knock-out mice (Shah et al., Circ., 97:780-5, 1998).
As noted above, data from three experimental series were pooled. Pooling of data is justified as only minor changes in the procedures were made (21 injections at 30 mg/kg over 42 and 21 days, respectively), and the diet regimens and sources of mice and polypeptide, respectively, were the same. In the first experiment S26 was substituted for Y26.

[4] = tested on: J774 macrophages; assay: Pretreatment of macrophages, then Apo A-I-mediated cholesterol efflux; type: cell-based, mouse; details: 4 hour pretreatment, vs serum-free medium alone; Apo A-I 10 μg/ml
Procedure: To determine whether conditioning of macrophages with the polypeptide of SEQ ID NO:4 upregulates cholesterol efflux to native apolipoproteins, J774 macrophages labeled with [^3H]cholesterol were induced for the ABCA1 response using a cAMP analog (24 h). This was followed by a 4 hour treatment (no cAMP) with serum-free medium alone or medium containing the polypeptide of SEQ ID NO:4. After 4 h with no cAMP, cholesterol efflux was initiated by adding fresh medium containing Apo A-I (10 μg/ml). Polypeptide of SEQ ID NO:4 pretreatment produced a 40% increase in Apo A-I-mediated cholesterol efflux from macrophages, compared to pretreatment with serum-free medium alone (see, FIG. 6).

[5] = molecular target: ABCA1 (Mus musculus, UniProt P41233); assay: Cholesterol efflux from [3H]cholesterol-labeled ABCA1-expressing J774 mouse macrophages; type: cell-based; parameters: to upregulate cellular ABCA1 protein; endogenous in cells; host or cells: J774 mouse macrophages
Sequence of ABCA1 (Mus musculus, UniProt P41233) (P41233 whole entry): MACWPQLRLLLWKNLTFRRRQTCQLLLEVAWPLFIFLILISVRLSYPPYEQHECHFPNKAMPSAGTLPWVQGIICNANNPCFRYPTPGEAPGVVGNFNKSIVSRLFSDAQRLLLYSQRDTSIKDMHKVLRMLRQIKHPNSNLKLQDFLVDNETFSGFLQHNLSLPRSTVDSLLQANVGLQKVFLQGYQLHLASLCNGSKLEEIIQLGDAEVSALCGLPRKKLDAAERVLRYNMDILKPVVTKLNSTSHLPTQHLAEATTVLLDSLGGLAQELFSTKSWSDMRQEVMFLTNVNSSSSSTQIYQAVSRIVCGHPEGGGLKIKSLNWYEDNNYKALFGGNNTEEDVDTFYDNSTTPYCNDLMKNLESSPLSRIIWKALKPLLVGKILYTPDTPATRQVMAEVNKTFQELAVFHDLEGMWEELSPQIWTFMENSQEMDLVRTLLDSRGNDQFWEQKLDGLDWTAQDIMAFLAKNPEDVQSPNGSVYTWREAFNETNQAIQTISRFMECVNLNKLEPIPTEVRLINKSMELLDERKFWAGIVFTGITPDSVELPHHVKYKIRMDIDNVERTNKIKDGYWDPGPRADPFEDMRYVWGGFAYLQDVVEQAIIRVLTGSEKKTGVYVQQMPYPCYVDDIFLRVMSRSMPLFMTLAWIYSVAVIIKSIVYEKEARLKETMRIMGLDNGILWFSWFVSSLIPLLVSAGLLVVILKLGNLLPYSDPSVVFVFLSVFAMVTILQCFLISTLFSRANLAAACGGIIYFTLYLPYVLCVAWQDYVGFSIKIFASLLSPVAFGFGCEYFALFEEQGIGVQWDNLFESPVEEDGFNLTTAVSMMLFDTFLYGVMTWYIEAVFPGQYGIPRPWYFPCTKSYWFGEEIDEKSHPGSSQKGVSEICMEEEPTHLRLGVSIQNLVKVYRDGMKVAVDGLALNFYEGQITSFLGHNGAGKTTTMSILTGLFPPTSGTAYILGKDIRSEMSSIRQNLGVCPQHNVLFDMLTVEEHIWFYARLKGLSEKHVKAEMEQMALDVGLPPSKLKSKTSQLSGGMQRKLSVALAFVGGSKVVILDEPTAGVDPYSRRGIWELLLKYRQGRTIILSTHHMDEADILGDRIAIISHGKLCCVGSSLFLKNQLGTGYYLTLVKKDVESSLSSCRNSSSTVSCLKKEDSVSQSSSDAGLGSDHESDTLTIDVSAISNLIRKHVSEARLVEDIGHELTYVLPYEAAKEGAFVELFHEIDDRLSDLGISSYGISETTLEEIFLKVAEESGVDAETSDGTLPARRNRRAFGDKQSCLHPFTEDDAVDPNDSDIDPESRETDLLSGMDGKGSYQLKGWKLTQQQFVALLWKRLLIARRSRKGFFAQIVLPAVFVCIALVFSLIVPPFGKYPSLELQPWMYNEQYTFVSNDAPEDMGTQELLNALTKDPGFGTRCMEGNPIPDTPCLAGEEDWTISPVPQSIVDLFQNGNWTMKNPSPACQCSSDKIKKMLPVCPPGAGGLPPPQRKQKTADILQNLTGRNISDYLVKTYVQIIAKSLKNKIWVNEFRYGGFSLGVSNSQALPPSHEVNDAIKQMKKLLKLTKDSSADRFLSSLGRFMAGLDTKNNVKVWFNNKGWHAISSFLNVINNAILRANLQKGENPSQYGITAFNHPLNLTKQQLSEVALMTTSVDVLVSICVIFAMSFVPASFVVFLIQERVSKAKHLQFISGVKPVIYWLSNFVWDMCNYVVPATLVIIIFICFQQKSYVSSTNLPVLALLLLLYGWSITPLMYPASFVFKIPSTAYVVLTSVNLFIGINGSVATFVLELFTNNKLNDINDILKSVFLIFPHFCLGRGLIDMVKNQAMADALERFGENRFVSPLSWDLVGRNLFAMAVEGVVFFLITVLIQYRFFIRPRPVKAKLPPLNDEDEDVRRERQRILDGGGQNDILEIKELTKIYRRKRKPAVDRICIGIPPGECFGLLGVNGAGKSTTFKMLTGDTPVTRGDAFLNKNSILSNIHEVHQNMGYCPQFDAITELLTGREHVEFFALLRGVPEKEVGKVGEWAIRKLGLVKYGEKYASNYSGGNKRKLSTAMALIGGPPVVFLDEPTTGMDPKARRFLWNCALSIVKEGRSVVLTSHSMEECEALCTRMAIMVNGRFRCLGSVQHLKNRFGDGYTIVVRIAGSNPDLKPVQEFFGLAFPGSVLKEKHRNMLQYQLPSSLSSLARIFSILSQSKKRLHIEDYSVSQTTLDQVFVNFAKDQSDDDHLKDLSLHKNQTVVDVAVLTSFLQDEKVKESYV

[6] = tested on: Apolipoprotein E deficient (Apo E −/−) mice; assay: Established atherosclerosis in Apo E -/- mice on high-fat diet (Example 18); type: in vivo, mouse; details: 10 mg/kg IP at 2-day intervals
Procedure: Male Apolipoprotein E deficient (Apo E −/−) mice (six-weeks of age) were fed a high-fat diet for 26 weeks. During the last 6 weeks on the high-fat diet, the mice received intraperitoneal (IP) injections of either saline or the polypeptide of SEQ ID NO:4 (10 mg/kg) at 2-day intervals. […] The effect of the polypeptide reducing established atherosclerosis was highly significant, as judged by the lipid-content of plaques in the aortic sinus (see, FIG. 18). This was accomplished using the lipid-free polypeptide of SEQ ID NO:4 composed of all L-amino acids administered in the continued presence of the dietary insult.

[7] = 30 mg/kg IP, 6 weeks of treatment

## EVRSKLEEWFAAFREFAEEFLARLKS (ATI-5261 amphipathic alpha-helix polypeptide core sequence selectively binds HDL, high-affinity ligand for ATP-binding cassette transporter A1 (ABCA1), ABCA1-lipid cholesterol efflux, ABCA1-stablization, anti-oxidant and anti- inflammatory activity) [SEQ ID NO:4]
[1]
  persistence of effects: up to 48 h
[1]; 8 and 24 h
  increase in fecal sterol secretion: greater than 2 fold
[1]; 8 and 24 hour post-injection, vs saline
  increase in macrophage derived [3H]cholesterol in plasma: 2 fold
[2]
  non-specific efflux activity in the absence of ABCA1: minimal
[2]; mouse macrophages and ABCA1-transfected HeLa
  requirement of ABCA1 for cholesterol efflux activity: required ABCA1 for efflux activity
[3]; [7]
  lipid-content of aortic sinus plaque: decreased the lipid-content of aortic sinus plaque
  plaque lesion area over the whole aorta: reduced plaque lesion area over the whole aorta
[3]; 30 mg/kg IP, 21 injections, pooled data of three series
  antiatherosclerotic effect (whole aorta and aortic root/sinus): significant antiatherosclerotic effects
[3]; pooled data
  p versus control, FIG. 19A percent of lipid in plaque in whole aorta: < 0.0040
[4]
  increase in Apo A-I-mediated cholesterol efflux after pretreatment: 40%
[5]; Km in molar units
  cholesterol efflux efficiency/potency on per molecule (molar) basis versus apolipoproteins: molar potency similar to that of apolipoproteins; also recorded: activity similar to full-length Apo A-I, Apo E, and the C-terminal (CT) domain of Apo E
[5]; increasing concentrations based on mass
  cholesterol efflux at low mass concentrations: relatively high-levels of cholesterol efflux
[5]; mass basis, over working concentration range
  more potent than ApoA-I in stimulating cholesterol efflux: at least 300%
[6]; 6 weeks
  effect on established atherosclerosis (in words): reduced aortic plaque lipid content; also recorded: significantly reduced established atherosclerosis
[6]; last 6 weeks of 26 weeks high-fat diet, lipid-content of aortic sinus plaques
  greater atherosclerosis in saline control mice compared to treated mice: 38%
